Measured values published in patent US7619089B2, “Derivatives of N-heterocyclylmethylbenzamides, preparation method thereof and application of same in therapeutics” (Sanofi-Aventis, priority 2003, dated 2009).
Where a name gives a salt, the structure may show the parent alone.

Key:
[1] = molecular target: T1, native human transporter glyt1 (Homo sapiens, UniProt P48067); assay: Transport of glycine ([14C]glycine capture) in SK-N-MC cells expressing the native human transporter glyt1; assay type: cell-based; conditions: 10 μM [14C]glycine, 10 min at 37° C., pH 7.4, read-out: IC50, concentration which reduces by 50% the specific capture of glycine
T1 construct: expressing the native human transporter glyt1; endogenous in cells; host or cells: SK-N-MC cells (human neuroepithelial cells)
T1 sequence (P48067 1-706): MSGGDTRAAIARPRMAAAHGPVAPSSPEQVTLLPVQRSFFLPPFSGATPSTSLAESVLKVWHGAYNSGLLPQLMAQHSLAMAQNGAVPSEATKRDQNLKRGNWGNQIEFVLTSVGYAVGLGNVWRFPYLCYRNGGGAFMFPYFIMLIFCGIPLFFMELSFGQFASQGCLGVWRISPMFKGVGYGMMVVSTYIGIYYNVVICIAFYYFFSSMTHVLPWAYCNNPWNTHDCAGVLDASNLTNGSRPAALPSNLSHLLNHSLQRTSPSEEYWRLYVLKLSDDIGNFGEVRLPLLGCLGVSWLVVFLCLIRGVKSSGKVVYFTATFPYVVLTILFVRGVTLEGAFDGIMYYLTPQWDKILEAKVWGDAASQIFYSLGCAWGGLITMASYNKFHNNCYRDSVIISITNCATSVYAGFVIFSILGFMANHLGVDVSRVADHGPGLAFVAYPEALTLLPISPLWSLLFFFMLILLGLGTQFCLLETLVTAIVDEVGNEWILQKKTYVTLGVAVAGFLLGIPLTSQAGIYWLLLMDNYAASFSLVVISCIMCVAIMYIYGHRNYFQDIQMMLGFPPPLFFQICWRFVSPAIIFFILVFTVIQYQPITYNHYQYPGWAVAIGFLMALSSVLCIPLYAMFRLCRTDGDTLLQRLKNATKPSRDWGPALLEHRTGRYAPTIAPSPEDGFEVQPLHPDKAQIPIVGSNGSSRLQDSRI
Experimental: Study of the Transport of Glycine in SK-N-MC Cells Expressing the Native Human Transporter Glyt1.
The capture of [^14C]glycine is studied in SK-N-MC cells (human neuroepithelial cells) expressing the native human transporter glyt1 by measuring the radioactivity incorporated in the presence or in the absence of the test compound. The cells are cultured in a monolayer for 48 h in plates pretreated with fibronectin at 0.02%. On the day of the experiment, the culture medium is removed and the cells are washed with a Krebs-HEPES ([4-(2-hydroxyethyl)piperazine]1-ethanesulfonic acid) buffer at pH 7.4. After a preincubation of 10 min at 37° C. in the presence either of buffer (control batch), or of test compound at various concentrations, or of 10 mM glycine (determination of the nonspecific capture), 10 μM [^14C]glycine (specific activity 112 mCi/mmol) are then added. The incubation is continued for 10 min at 37° C., and the reaction is stopped by 2 washes with a Krebs-HEPES buffer at pH 7.4. The radioactivity incorporated by the cells is then estimated after adding 100 μl of liquid scintillant and stirring for 1 h. The counting is performed on a Microbeta Tri-lux™ counter. The efficacy of the compound is determined by the IC50, the concentration of the compound which reduces by 50% the specific capture of glycine, defined by the difference in radioactivity incorporated by the control batch and the batch which received the glycine at 10 mM.

[2] = molecular target: T2, transporter glyt2 (Mus musculus, UniProt Q761V0); assay: Transport of glycine ([14C]glycine capture) in mouse spinal cord homogenate; assay type: biochemical; conditions: 10 μM [14C]glycine, 10 min at 25° C., pH 7.4, read-out: IC50, concentration reducing by 50% the specific capture of glycine
T2 construct: from tissue; host or cells: mouse spinal cord homogenate (Iffa Crédo OF1 male mice)
T2 sequence (Q761V0 1-799): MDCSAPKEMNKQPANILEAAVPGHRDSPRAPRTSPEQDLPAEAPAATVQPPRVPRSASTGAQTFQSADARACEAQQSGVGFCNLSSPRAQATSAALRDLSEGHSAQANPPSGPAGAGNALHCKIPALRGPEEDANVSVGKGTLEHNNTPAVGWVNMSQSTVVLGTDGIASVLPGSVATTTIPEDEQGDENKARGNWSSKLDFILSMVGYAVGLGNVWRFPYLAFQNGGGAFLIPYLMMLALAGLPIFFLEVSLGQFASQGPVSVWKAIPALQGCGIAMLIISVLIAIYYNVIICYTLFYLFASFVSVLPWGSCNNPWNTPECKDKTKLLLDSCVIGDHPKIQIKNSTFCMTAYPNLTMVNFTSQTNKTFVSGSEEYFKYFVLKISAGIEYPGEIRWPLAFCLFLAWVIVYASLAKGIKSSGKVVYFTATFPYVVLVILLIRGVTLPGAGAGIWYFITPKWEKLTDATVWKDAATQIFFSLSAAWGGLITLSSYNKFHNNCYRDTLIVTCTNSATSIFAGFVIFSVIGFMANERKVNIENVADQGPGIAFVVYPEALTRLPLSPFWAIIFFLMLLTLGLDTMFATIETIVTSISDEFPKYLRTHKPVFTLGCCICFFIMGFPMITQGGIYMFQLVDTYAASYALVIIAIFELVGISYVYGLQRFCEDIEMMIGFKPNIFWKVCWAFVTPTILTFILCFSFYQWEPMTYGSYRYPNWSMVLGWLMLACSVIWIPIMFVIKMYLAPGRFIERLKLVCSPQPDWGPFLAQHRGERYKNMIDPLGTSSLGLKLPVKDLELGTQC
Excerpt: Study of the Transport of Glycine in Mouse Spinal Cord Homogenate
The capture of [^14C]glycine by the transporter glyt2 is studied in mouse spinal cord homogenate by measuring the radioactivity incorporated in the presence or in the absence of the compound to be studied.
After the animals have been humanely killed (Iffa Crédo OF1 male mice weighing 20 to 25 g on the day of the experiment), the spinal cord of each animal is rapidly removed, weighed and stored on ice. The samples are homogenized in a Krebs-HEPES ([4-(2-hydroxyethyl)piperazine]1-ethanesulfonic acid) buffer, pH 7.4, at a rate of 25 ml/g of tissue.
50 μl of homogenate are preincubated for 10 min at 25° C. in the presence of Krebs-HEPES buffer, pH 7.4 and of compound to be studied at various concentrations, or of 10 mM glycine in order to determine the nonspecific capture. The [^14C]glycine (specific activity=112 mCi/mmol) is then added for 10 min at 25° C. at the final concentration of 10 μM. The reaction is stopped by filtration under vacuum and the radioactivity is estimated by solid scintillation by counting on a Microbeta Tri-lux™ counter.
The efficacy of the compound is determined by the concentration IC50 capable of reducing by 50% the specific capture of glycine, defined by the difference in radioactivity incorporated by the control batch and the batch which received the 10 mM glycine.

## O=C(NC(c1ccc(F)cc1)C1CC2CCN1CC2)c1c(Cl)ccc(C(F)(F)F)c1Cl (stereo not drawn) [Compound No. 26, threo-N-[1-Azabicyclo[2.2.2]oct-2-yl(4-fluorophenyl)-methyl]-2,6-dichloro-3-(trifluoromethyl)benzamide hydrochloride 1:1]
[1]
  IC50: 70 nM

## C=CC1CN2CCC1CC2C(NC(=O)c1cccc(C(F)(F)F)c1Cl)c1ccnc2ccccc12 [Compound No. 14, 2-Chloro-N-(8α,9S)cinchonan-9-yl)-3-trifluoromethyl-benzamide hydrochloride 2:1]
[1]
  IC50: 70 nM

## O=C(N[C@@H](c1ccccc1)[C@@H]1CC2CCN1CC2)c1c(Cl)ccc(C(F)(F)F)c1Cl [Compound No. 17]
[1]
  IC50: 1 nM
[2]
  IC50: 690 nM

## O=C(NC(c1ccccc1)C1CC2CCN1CC2)c1c(Cl)ccc(C(F)(F)F)c1Cl (stereo not drawn) [Compound No. 4, threo-2,6-Dichloro-N-[(1-azabicyclo[2.2.2]oct-2-yl)phenylmethyl]-3-trifluoromethylbenzamide hydrochloride 1:1]
[1]
  IC50: 4 nM

## O=C(NC(c1ccccc1)C1CC2CCN1CC2)c1cccc(C(F)(F)F)c1Cl (stereo not drawn) [Compound No. 3, threo-2-Chloro-N-[(1-azabicyclo[2.2.2]oct-2-yl)phenyl-methyl]-3-trifluoromethylbenzamide hydrochloride 1:1]
[1]
  IC50: 17 nM
